# In patent US11541065B2, “Compositions and methods for treating brain injury” (UNM RAINFOREST INNOVATIONS, priority 2018, dated 2023):
# How the values were obtained:
# ERK MAPK = ERK MAPK phosphorylation in WT and GluN2A-KO mouse neuron cultures (immunoblot); assay type: cell-based, mice; settings: L-homocysteine 50 μM
# Excerpt: Primary cortical neuronal cultures were established from embryos obtained from pregnant Sprague Dawley female rats (16-17 day gestation) as previously described (Podder and Paul, 2009, J Neurochem 110:1095-1106; Poddar and Paul, 2013, J Neurochem 124: 558-570). Primary cortical neuronal cultures were also developed from pregnant wildtype or GluN2A-knockout mice (15-16 day gestation) using similar protocols. The cells were maintained in culture for 12-14 days prior to treatment with homocysteine. L-homocysteine (200 mM stock) was prepared by alkali hydrolysis of L-homocysteine thiolactone hydrochloride followed by neutralization with 2N HCL and maintained in 0.02 mM N-Tris(hydroxymethyl)methyl-2-aminoethanesulfonicd acid (TES) buffer pH 7.4 (Poddar et al., 2001, Circulation 103:2717-2723). For receptor stimulation neurons were treated with freshly prepared 50 μM of L-homocysteine in Hank's balanced salt solution (Podder and Paul, 2009, J Neurochem 110:1095-1106; Poddar and Paul, 2013, J Neurochem 124: 558-570) containing 50 μM of glycine (Lipton et al., 1997, Proc Natl Acad Sci USA 94:5923-5928). In a subset of culture plates, pharmacological inhibitors (NVP-AAM007) were added […] prior to homocysteine addition and maintained during homocysteine treatment. Cells were processed for immunoblotting or Hoechst DNA staining.
# Equal protein from total cell lysates obtained from rat and mice neuronal cultures were resolved in 7.5% SDS-PAGE, and subjected to immunoblotting procedure as described earlier (Podder and Paul, 2009, J Neurochem 110:1095-1106). Blots were analyzed with antibodies as described in each experiment. All primary antibodies (anti-pERK, anti-ERK) and secondary-horse radish peroxidase conjugated antibody concentrations were used according to recommendations provided by the manufacturer. Signals from immune complexes in the blots were developed using West Pico supersignal chemiluminescence reagents and then captured on X-ray films. Densitometric analysis of the images was performed using the Image J software.
# Embryos obtained from pregnant Sprague Dawley rats (16-17-day gestation) or wild type (WT) and GluN2A KO mice (15-16-day gestation) were used to establish primary cortical neuronal cultures as previously described (Poddar and Paul, 2009, J Neurochem 110:1095-1106; Poddar and Paul, 2013, J Neurochem 124:558-570; Poddar et al., 2017, J Neurochem 142:560-573). Neurons were grown on either (a) 35-mm culture dishes (MatTek Corp., Ashland, Mass.) coated overnight with poly-D-lysine (50 μg/ml) and laminin (10 μg/ml) for Ca^2+ imaging studies, (b) poly-D-lysine-coated 60 mm dishes (Corning BIOCOAT, Corning Inc., Corning, N.Y.) for biochemical studies, or (c) poly-D-lysine-coated 4-well culture slides (Corning BIOCOAT, Corning Inc., Corning, N.Y.) for cell death assay. Neurons were maintained in culture for 12-13 days before experiment. The cells were treated with freshly prepared L-homocysteine (50 μM) in Hank's balanced salt solution containing 50 μM of glycine (Lipton et al., 1997, Proceedings of the National Academy of Sciences of the United States of America 94:5923-5928; Poddar and Paul, 2009, J Neurochem 110:1095-1106; Poddar and Paul, 2013, J Neurochem 124:558-570; Poddar et al., 2017, J Neurochem 142:560-573) for the specified time periods. In a parallel series of experiments, cells were treated with glutamate (50 μM) for the specified time periods. Cells were then processed for live cell imaging, immunoblotting or cell death assay. […]
# [1] = system: neuron cultures from WT and GluN2A-KO mice; test: Neuronal cell death by Hoechst DNA staining, WT and GluN2A-KO mouse neuron cultures; assay type: cell-based; settings: for neuronal death: homocysteine 50 μM, 18 hours; for cell death: L-homocysteine 50 μM, 24 hours
# Method: Neurons were subjected to staining with Hoechst 33342 dye for 15 minutes, washed extensively with PBS, and analyzed using fluorescent microscopy to assess nuclear damage. Imaging was performed with a Zeiss Axiovert 200M fluorescence microscope with attached AxioCam CCD camera using 20× objective lens (Carl Zeiss, Thomwood, N.Y.). To quantitatively assess the percentage of pyknotic nuclei a total of 1000 cells were counted for each set of experiments. Mean±SEM (n=3) were used for statistical comparison using ANOVA (Bonferroni's multiple comparison test). Differences were considered significant when p<0.05.
# […] Glutamate treated cells were then maintained in their original medium for another 17 hours. For some experiments, neurons were treated with L-homocysteine or glutamate in the presence of NVP-AAM077 or PD98059. The neurons were then fixed and stained with Hoechst 33342 dye as previously described (Poddar and Paul, 2009, J Neurochem 110:1095-1106). Percentage of pyknotic nuclei was quantitatively assessed by fluorescent microscopy to determine the extent of neuronal death.
# MCP-1 = MCP-1 level in ischemic brain (ELISA); assay type: in vivo, Wistar rats; settings: HHcy rats, MCAO 60 minutes, six hours of reperfusion, NVP-AAM077 1.2 mg/kg intravenous at onset of insult
# Method: (§1) Wistar rats were made hyperhomocysteinemic using osmotic pump containing L-homocysteine. Animals were hyperhomocysteinemic (19-23 μM) within three days of pump implantation. Ischemic stroke was induced by MCAO for 60 minutes followed by reperfusion for six hours. Tissue punches from the ipsilateral striatum and cortex were lysed in ice-cold Phosphate buffered saline (pH 7.4) containing phosphatase inhibitor, sonicated three times in five-second bursts and placed on ice (two minutes) between each burst of sonication. The lysed cell suspensions were centrifuged at 10,000 rpm (10 minutes) and the supernatant was collected in another tube. Equal amounts of protein from the supernatant were processed for PGE2 and MCP-1 levels using respective ELISA kit.
# PGE2 = PGE2 level in ischemic brain (ELISA); assay type: in vivo, Wistar rats; settings: HHcy rats, MCAO 60 minutes, six hours of reperfusion, NVP-AAM077 1.2 mg/kg intravenous at onset of insult
# Method: as §1
Structure (SMILES),"ERK MAPK phosphorylation (ERK MAPK; neurons from GluN2A KO mice, 30 or 60 minutes)","ERK MAPK phosphorylation (ERK MAPK; neurons from GluN2A-KO mice, four hours)","ERK MAPK phosphorylation (ERK MAPK; neurons from WT mice, 30 or 60 minutes)","ERK MAPK phosphorylation (ERK MAPK; neurons from WT mice, four hours)",neuronal death ([1]; cultures from GluN2A KO mice),neuronal death ([1]; cultures from WT mice),cell death ([1]; neurons from GluN2A-NMDAR knockout mice),cell death ([1]; neurons from WT mice),MCP-1 level in ischemic hemisphere (cortex and striatum) (MCP-1),PGE2 level in ischemic hemisphere (cortex and striatum) (PGE2)
N[C@@H](CCS)C(=O)O [L-homocysteine],fails to induce ERK MAPK phosphorylation,remains unchanged,sustained increase in ERK MAPK phosphorylation,significant increase in ERK MAPK phosphorylation,fails to induce neurotoxicity,significantly increases neuronal death,fails to alter cell death,significant increase in cell death,,
"C[C@H](NC(c1cccc2[nH]c(=O)c(=O)[nH]c12)P(=O)(O)O)c1ccc(Br)cc1 (stereo partly drawn) [NVP-AAM077, ({[(1S)-1-(4-bromophenyl)ethyl]amino}-(2,3-dioxo-1,4-dihydroquinoxalin-5-yl)methyl)phosphonic acid]",,,,,,,,,attenuated the increase in the level of both PGE2 and MCP-1,attenuated the increase in the level of both PGE2 and MCP-1
